pEC50, pIC50: −log10 of the molar value. Where two headings read alike, the source gives them in different places.
Columns and labels:
[1] = molecular target: T1, His-Tagged hOGA (human O-GlcNAcase) (Homo sapiens, UniProt O60502); experiment: biochemical
T1 sequence (O60502 1-916): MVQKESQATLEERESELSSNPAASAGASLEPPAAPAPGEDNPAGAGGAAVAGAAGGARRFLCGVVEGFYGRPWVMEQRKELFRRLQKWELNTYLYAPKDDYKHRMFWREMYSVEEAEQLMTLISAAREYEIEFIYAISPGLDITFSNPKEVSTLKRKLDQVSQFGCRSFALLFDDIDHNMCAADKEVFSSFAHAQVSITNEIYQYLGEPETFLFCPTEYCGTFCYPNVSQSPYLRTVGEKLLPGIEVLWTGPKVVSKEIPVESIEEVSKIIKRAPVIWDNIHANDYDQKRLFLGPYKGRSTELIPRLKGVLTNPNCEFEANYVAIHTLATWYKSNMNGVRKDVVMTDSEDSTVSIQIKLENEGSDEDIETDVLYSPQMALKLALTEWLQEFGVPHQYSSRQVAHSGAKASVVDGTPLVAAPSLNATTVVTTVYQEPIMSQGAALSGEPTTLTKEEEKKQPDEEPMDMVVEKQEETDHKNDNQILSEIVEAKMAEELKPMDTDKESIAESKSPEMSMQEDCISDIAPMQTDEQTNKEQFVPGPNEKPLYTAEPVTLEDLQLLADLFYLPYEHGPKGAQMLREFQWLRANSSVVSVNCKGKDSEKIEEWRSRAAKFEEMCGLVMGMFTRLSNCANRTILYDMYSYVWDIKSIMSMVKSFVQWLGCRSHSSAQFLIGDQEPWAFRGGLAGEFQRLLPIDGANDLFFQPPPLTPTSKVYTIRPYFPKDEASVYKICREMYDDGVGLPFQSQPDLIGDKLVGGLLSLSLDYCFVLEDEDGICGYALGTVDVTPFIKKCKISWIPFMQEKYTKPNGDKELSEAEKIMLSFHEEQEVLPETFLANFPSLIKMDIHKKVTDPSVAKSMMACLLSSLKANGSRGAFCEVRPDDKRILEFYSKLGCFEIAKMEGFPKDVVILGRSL
Experimental: Human O-GlcNAcase Enzyme Inhibition Assay
The following reaction components were added to a final volume of 10 μL in McIlvaine's Buffer (pH 6.5):
20 nM His-Tagged hOGA and 10 μM Fluoroscein mono-beta-D-(2-deoxy-2-N-acetyl) glucopyranoside (FL-GlcNAc; Marker Gene Technologies Inc, Part #M1485). […] The amount of fluorescence measured was plotted against the concentration of inhibitor to produce a sigmoidal dose response curve, from which an IC50 was calculated.

O-GlcNAcase = molecular target: T2, O-GlcNAcase (UniProt Q8VIJ5); format: cell-based; conditions: cells expressing endogenous O-GlcNAcase (such as rat B35, rat PC-12, human SH-SY5Y), approximately 16 hours treatment; read-out: OGA cellular inhibition (EC50)
T2 sequence (Q8VIJ5 1-916): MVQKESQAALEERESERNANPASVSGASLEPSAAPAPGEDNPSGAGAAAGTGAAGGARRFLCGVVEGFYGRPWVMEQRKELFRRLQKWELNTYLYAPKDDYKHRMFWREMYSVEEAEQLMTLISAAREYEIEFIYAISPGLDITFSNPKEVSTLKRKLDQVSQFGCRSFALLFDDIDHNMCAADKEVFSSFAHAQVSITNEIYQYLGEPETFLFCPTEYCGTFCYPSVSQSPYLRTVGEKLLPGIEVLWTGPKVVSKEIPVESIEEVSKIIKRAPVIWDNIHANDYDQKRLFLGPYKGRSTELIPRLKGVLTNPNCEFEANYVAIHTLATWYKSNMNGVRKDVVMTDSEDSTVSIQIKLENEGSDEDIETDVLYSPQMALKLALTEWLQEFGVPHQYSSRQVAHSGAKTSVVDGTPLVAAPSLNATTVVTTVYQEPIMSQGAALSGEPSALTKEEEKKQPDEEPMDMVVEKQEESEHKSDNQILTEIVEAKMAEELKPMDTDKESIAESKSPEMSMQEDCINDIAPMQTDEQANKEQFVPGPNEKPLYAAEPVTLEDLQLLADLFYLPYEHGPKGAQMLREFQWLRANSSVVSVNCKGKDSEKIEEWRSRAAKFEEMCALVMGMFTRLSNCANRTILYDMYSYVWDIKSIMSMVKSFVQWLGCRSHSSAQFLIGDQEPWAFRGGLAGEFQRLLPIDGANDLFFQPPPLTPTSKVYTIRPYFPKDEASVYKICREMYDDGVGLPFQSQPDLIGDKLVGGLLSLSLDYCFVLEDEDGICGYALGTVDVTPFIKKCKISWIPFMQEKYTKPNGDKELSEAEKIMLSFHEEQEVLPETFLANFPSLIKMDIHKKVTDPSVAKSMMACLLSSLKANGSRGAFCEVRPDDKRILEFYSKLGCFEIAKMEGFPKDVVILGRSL
Description: Assay for the Determination of Cellular Activity for Compounds that Inhibit O-GlcNAcase Activity
Inhibition of O-GlcNAcase, which removes O-GlcNAc from cellular proteins, results in an increase in the level of O-GlcNAcylated proteins in cells. An increase in the O-GlcNAcylation of cellular proteins can be measured by an antibody, such as CTD110.6, that binds O-GlcNAcylated proteins. The amount of O-GlcNAcylated protein can be determined by the enzyme linked immunoabsorbant assay (ELISA) technique.
Cell lines, such as rat B35, rat PC-12 and human SH-SY5Y cells, expressing endogenous levels of O-GlcNAcase, could be utilized. Cells were plated in 96-well plates at a density of approximately 10,000 cells/well. Compounds to be tested were dissolved in DMSO as 10 mM stock solution, and then diluted first with DMSO and then culture media using the Bravo workstation. Cells were treated with diluted compounds for approximately 16 hours. […] To prepare a cell lysate, the media from compound treated cells were removed, and the cells were washed once with Dulbecco's phosphate buffered saline (DPBS) and then lysed for 30 minutes in 100 μl/well of ice cold RIPA buffer containing a protease inhibitor cocktail.
The ELISA portion of the assay was performed in EIA/RIA plates that were coated overnight at 4 C with 80 μl/well of cell lysate. The following day the wells were washed 6 times with 200 μl of wash buffer (0.05% Tween20 in DPBS). The wells were blocked with 200 μl blocking buffer (1% BSA, 0.05% Tween20 in DPBS) for 1 h at room temperature. Each well was then washed 6 times with 200 μl of wash buffer. The anti-O-GlcNAc antibody CTD110.6 (Covance, Princeton, N.J.) was added at 100 μl/well at a concentration of 10 μg/ml. The plates were incubated for 1 h at room temperature. The wells were then washed 6 times with 200 μl/well of wash buffer. To detect the amount of CTD110.6 bound to the cell lysate, alkaline phosphatase conjugated goat anti-mouse IgM (diluted 1:500 in blocking buffer) was added at 100 μl/well and incubated for 45 min at room temperature. Each well was then washed 6 times with 200 μl/well of wash buffer. PNPP tablets dissolved in diethanolamine substrate buffer and 100 μl/well were added as detection reagent.
The amount of O-GlcNAcylated protein, as detected by the ELISA assay, was plotted for each concentration of test compound using standard curve fitting algorithms for sigmoidal dose response curves. The values for a four parameter logistic curve fit of the data were determined, with the inflection point of the curve being the potency value for the test compound.

[2] = read-out: OGA enzyme inhibition (IC50)

Compound | pIC50 [1, 2] | pEC50 (O-GlcNAcase) | pIC50 [1]
C/C=C/C(=O)NC1=N[C@@H]2[C@@H](O)[C@H](O)[C@@H](CO)O[C@@H]2S1 [compound no. 19, (2E)-N-[(3aR,5R,6S,7R,7aR)-6,7-dihydroxy-5-(hydroxymethyl)-5,6,7,7a-tetrahydro-3aH-pyrano[3,2-d][1,3]thiazol-2-yl]but-2-enamide] | 6.00 to 6.30 | < 6.00 | 
CCNC1=N[C@@H]2[C@@H](O)[C@H](O)[C@@H](Cn3cc(Cc4ccccc4)nn3)O[C@@H]2S1 [compound no. 14, (3aR,5R,6S,7R,7aR)-5-[(4-benzyl-1H-1,2,3-triazol-1-yl)methyl]-2-(ethylamino)-5,6,7,7a-tetrahydro-3aH-pyrano[3,2-d][1,3]thiazole-6,7-diol] |  | 6.30 to 7.00 | > 7.00
CCNC1=N[C@@H]2[C@@H](O)[C@H](O)[C@@H](Cn3cc(Cn4nnc5ccccc54)nn3)O[C@@H]2S1 [compound no. 57, (3aR,5R,6S,7R,7aR)-5-{[4-(1H-1,2,3-benzotriazol-1-ylmethyl)-1H-1,2,3-triazol-1-yl]methyl}-2-(ethylamino)-5,6,7,7a-tetrahydro-3aH-pyrano[3,2-d][1,3]thiazole-6,7-diol] |  | < 6.00 | > 7.00
CCNC1=N[C@@H]2[C@@H](O)[C@H](O)[C@@H](Cn3cc(COc4cccc(CO)c4)nn3)O[C@@H]2S1 [compound 75] |  | < 6.00 | > 7.00
CCNC1=N[C@@H]2[C@@H](O)[C@H](O)[C@@H](CN(C)C)O[C@@H]2S1 [compound no. 51, (3aR,5R,6S,7R,7aR)-5-[(dimethylamino)methyl]-2-(ethylamino)-5,6,7,7a-tetrahydro-3aH-pyrano[3,2-d][1,3]thiazole-6,7-diol] | 6.30 to 7.00 | 6.30 to 7.00 | 
CCNC1=N[C@@H]2[C@@H](O)[C@H](O)[C@@H](Cn3cc(COc4cccc(O)c4)nn3)O[C@@H]2S1 [compound 74] | > 7.00 | < 6.00 | 
CCNC1=N[C@@H]2[C@@H](O)[C@H](O)[C@@H](Cn3cc(Cn4c5ccccc5c5ccccc54)nn3)O[C@@H]2S1 [compound 69] | 6.30 to 7.00 | 6.30 to 7.00 | 
CCNC1=N[C@@H]2[C@@H](O)[C@H](O)[C@@H](COC(=O)OC(C)(C)C)O[C@@H]2S1 [compound no. 3, tert-butyl [(3aR,5R,6S,7R,7aR)-2-(ethylamino)-6,7-dihydroxy-5,6,7,7a-tetrahydro-3aH-pyrano[3,2-d][1,3]thiazol-5-yl]methyl carbonate] | 6.30 to 7.00 | > 7.00 | 
CCNC1=N[C@@H]2[C@@H](O)[C@H](O)[C@@H](Cn3cc(COc4cccc(S(C)(=O)=O)c4)nn3)O[C@@H]2S1 [compound 81] |  | < 6.00 | > 7.00
CCNC1=N[C@@H]2[C@@H](O)[C@H](O)[C@@H](CBr)O[C@@H]2S1 [compound no. 5, (3aR,5S,6S,7R,7aR)-5-(bromomethyl)-2-(ethylamino)-5,6,7,7a-tetrahydro-3aH-pyrano[3,2-d][1,3]thiazole-6,7-diol] | > 7.00 | 6.30 to 7.00 | 
CCNC1=N[C@@H]2[C@@H](O)[C@H](O)[C@@H](CCl)O[C@@H]2S1 [compound no. 32, (3aR,5S,6S,7R,7aR)-5-(chloromethyl)-2-(ethylamino)-5,6,7,7a-tetrahydro-3aH-pyrano[3,2-d][1,3]thiazole-6,7-diol] | > 7.00 | > 7.00 | 
CCNC1=N[C@@H]2[C@@H](O)[C@H](O)[C@@H](Cn3cc(COc4cccc(Br)c4)nn3)O[C@@H]2S1 [compound 72] | > 7.00 | 6.30 to 7.00 | 
CCNC1=N[C@@H]2[C@@H](O)[C@H](O)[C@@H](Cn3cc(COc4ccccc4O)nn3)O[C@@H]2S1 [compound 84] |  | < 6.00 | 6.30 to 7.00
CCNC1=N[C@@H]2[C@@H](O)[C@H](O)[C@@H](Cn3cc(COc4cccc(C)c4)nn3)O[C@@H]2S1 [compound 77] | > 7.00 | 6.30 to 7.00 | 
CCNC1=N[C@@H]2[C@@H](O)[C@H](O)[C@@H](Cn3cc(COc4cccc(C(C)O)c4)nn3)O[C@@H]2S1 (stereo partly drawn) [compound 76] |  | < 6.00 | > 7.00
CCNC1=N[C@@H]2[C@@H](O)[C@H](O)[C@@H](Cn3cc(COc4ccccc4OC)nn3)O[C@@H]2S1 [compound 88] |  | < 6.00 | > 7.00
CCNC1=N[C@@H]2[C@@H](O)[C@H](O)[C@@H](Cn3cc(Cn4cccc4)nn3)O[C@@H]2S1 [compound 66] | > 7.00 | < 6.00 | 
CCN(C(=O)OC(C)(C)C)C1=N[C@@H]2[C@@H](O)[C@H](O)[C@@H](CO)O[C@@H]2S1 [compound no. 12, Tert-butyl [(3aR,5R,6S,7R,7aR)-6,7-dihydroxy-5-(hydroxymethyl)-5,6,7,7a-tetrahydro-3aH-pyrano[3,2-d][1,3]thiazol-2-yl]ethylcarbamate] |  | > 7.00 | > 7.00
CCNC1=N[C@@H]2[C@@H](O)[C@H](O)[C@@H](Cn3cc(COc4cccc(C#N)c4)nn3)O[C@@H]2S1 [compound 73] |  | 6.00 to 6.30 | > 7.00
CCNC1=N[C@@H]2[C@@H](O)[C@H](O)[C@@H](Cn3cc(COc4ccc(C(C)(C)C)cc4)nn3)O[C@@H]2S1 [compound 94] |  | 6.30 to 7.00 | 6.30 to 7.00
CCNC1=N[C@@H]2[C@@H](O)[C@H](O)[C@@H](Cn3cc(COc4ccccc4F)nn3)O[C@@H]2S1 [compound 89] | > 7.00 | 6.30 to 7.00 | 

From patent US8884023B2, “Pyrano [3,2-D][1,3]thiazole as glycosidase inhibitors” (priority 2011, dated 2014)
